Laboratory results: PMC11311697, “Exploring the Role of Neuropeptide PACAP in Cytoskeletal Function Using Spectroscopic Methods” (International Journal of Molecular Sciences, 2024)
Ends that are not written are not given here.

Experiments:
[1] = target: G-actin (Oryctolagus cuniculus, UniProt P68135); test: Steady-state anisotropy of Alexa488NHS-labeled G-actin with PACAP; format: binding, rabbit; conditions: 0.2 µM A488NHS-labeled G-actin; PACAP 0 to 5 µM; 50 mM KCl, 1 mM MgCl2, 4 μM LatA, 1 mM EGTA, G-buffer pH 7.8; 20 °C; ex 488 nm; mean ± SD, at least three independent experiments; read-out: dissociation equilibrium constant (KD), in Figure 3
Method: Actin was prepared from acetone-dried muscle powder from rabbit skeletal muscle according to the method of Spudich and Watt modified by Mossakowska et al.. Shortly, the acetone-dried powder was extracted in G-buffer (4 mM TRIS (Sigma-Aldrich, Saint Louis, MO, USA), 0.1 mM CaCl2 (Sigma-Aldrich, Saint Louis, MO, USA), 0.2 mM ATP (VWR International LLC, Radnor, PA, USA), 0.5 mM DTT (VWR International LLC, Radnor, PA, USA), pH 7.8), mixed on ice with a magnetic stirrer (30 min, 80 rpm). The mixture was filtered through quadruple-layered gauze, supplemented with additional G-buffer, mixed further (40 min, 80 rpm), filtered again, and centrifuged (30,000 rpm, 4 °C, 30 min). […] After clarification centrifugation (80,000 rpm, 30 min, 4 °C), the supernatant was removed and actin absorbance was measured using a spectrophotometer to determine its concentration. […]
For our investigation, we utilized A488NHS green-fluorescent dye, which remains stable between pH 4 and 10, with peak emission when excited at 488 nm. […] In vitro anisotropy and fluorescence emission measurements involved 0.2 µM Alexa488NHS-Mg^2+-ATP-G-actin (Alexa488NHS labeled G-actin) with varying PACAP concentrations. […] The cuvette (Hellma® fluorescence, ultra Micro, Suprasil® quartz, spectral range 200–2500 nm) had optical path lengths of ex = 10 mm/em = 2 mm. […]

[2] = system: Ca^2+-G actin and Ca^2+-F actin; conditions: DSC; ref [81],[82]; cited from earlier work
From the text: In previous investigations, we employed differential scanning calorimetry (DSC) to explore the impact of various PACAP fragments on the thermal stability of Ca^2+-G actin and Ca^2+-F actin.

[3] = system: Ca^2+-F-actin; parameters: method as in doi:10.1007/s10973-024-13286-2, doi:10.1007/s10973-024-13289-z; conditions: DSC; ref [81],[82]; cited from earlier work
[4] = system: streptozotocin-induced diabetes model; parameters: method as in PMID 34639032; conditions: ref [76]; cited from earlier work
[5] = system: astrocyte; conditions: by increasing cAMP levels; ref [57]; cited from earlier work
From the text: The polymerization of G-actin into filamentous actin (F-actin) is essential for maintaining cellular structural integrity and supporting dynamic processes. Actin filaments, which form the cell’s cytoskeleton, provide mechanical strength and stability. The F-actin network supports various cellular functions, including cell migration, division, and intracellular transport, by continuously polymerizing and depolymerizing. The dynamic nature of F-actin allows cells to adapt to environmental changes and respond to signals, interacting with regulatory proteins to influence membrane protr ...

[6] = system: caspase-3; conditions: ref [1],[79]; cited from earlier work
From the text: (§1) As mentioned above, PACAP plays a significant role in mitigating neuronal damage and promoting cell survival. […] The misfolding and aggregation of proteins such as Tau are hallmarks of neurodegenerative diseases like Alzheimer’s.

[7] = system: Tau; conditions: ref [1],[79]; cited from earlier work
From the text: as §1

[8] = system: adenylate cyclase, rat pituitary cells; conditions: versus VIP, ref [2]; cited from earlier work
From the text: Pituitary adenylate cyclase-activating polypeptide (PACAP) was first isolated from the sheep hypothalamus in 1989 [1, 2]. It belongs to the vasoactive intestinal peptide (VIP)/glucagon/secretin peptide family, sharing 68% structural homology with VIP, but stimulating adenylate cyclase activity 1000 times more effectively in rat pituitary cells. PACAP plays crucial roles in the nervous and endocrine systems, acting as a hormone, neurotransmitter, vasodilator, and neuromodulator, and potentially having neurotrophic or neuroprotective functions. PACAP exists in two biologically ...

[9] = system: dihydropyrimidinase like 2 (DPYL2); conditions: ischemic brain tissue; ref [43],[44]; cited from earlier work
From the text: (§2) PACAP synergizes with multiple factors to promote neurite growth in different cell lines. It works with nerve growth factor (NGF) and VIP to stimulate neuritogenesis, increasing neurite length and branching, similar to brain-derived neurotrophic factor (BDNF). […] In traumatic central nervous system (CNS) injuries, PACAP has cytoprotective and antiapoptotic effects. It increases dihydropyrimidinase li ...

[10] = system: traumatic brain injury (TBI); conditions: intracerebroventricular (icv); brain regions such as corticospinal tract and medial longitudinal fasciculus; ref [45],[46]; cited from earlier work
From the text: as §2

[11] = system: neurite growth in different cell lines; conditions: ref [40],[41],[42]; cited from earlier work
From the text: as §2

[12] = system: PAC1 receptor; conditions: ref [7],[8]; cited from earlier work
From the text: PACAP can bind to VPAC1 (VIP receptor type 1) and VPAC2 (VIP receptor […]) receptors, which also bind VIP, due to their structural similarity. […] The high specificity of PAC1 receptors for PACAP makes them ideal for studying PACAP–receptor interactions. PAC1 receptors, being GS protein-coupled receptors (GPCRs ...

CSCC[C@H](NC(=O)[C@H](CCC(N)=O)NC(=O)[C@H](CCCCN)NC(=O)[C@H](CCCNC(=N)N)NC(=O)[C@H](Cc1ccc(O)cc1)NC(=O)[C@H](CCCNC(=N)N)NC(=O)[C@H](CO)NC(=O)[C@H](Cc1ccc(O)cc1)NC(=O)[C@H](CO)NC(=O)[C@H](CC(=O)O)NC(=O)[C@@H](NC(=O)[C@@H](N)Cc1ccccc1)[C@@H](C)O)C(=O)N[C@@H](C)C(=O)N[C@H](C(=O)N[C@@H](CCCCN)C(=O)N[C@@H](CCCCN)C(=O)N[C@@H](Cc1ccc(O)cc1)C(=O)N[C@@H](CC(C)C)C(=O)N[C@@H](C)C(=O)N[C@@H](C)C(=O)N[C@H](C(=O)N[C@@H](CC(C)C)C(=O)NCC(=O)N[C@@H](CCCCN)C(=O)N[C@@H](CCCNC(=N)N)C(=O)N[C@@H](Cc1ccc(O)cc1)C(=O)N[C@@H](CCCCN)C(=O)N[C@@H](CCC(N)=O)C(=O)N[C@@H](CCCNC(=N)N)C(=O)N[C@H](C(=O)N[C@@H](CCCCN)C(=O)N[C@@H](CC(N)=O)C(=O)N[C@@H](CCCCN)C(N)=O)C(C)C)C(C)C)C(C)C [PACAP6-38]
Kd [1]: 150.46 ± 0.03 nM

CC[C@H](C)[C@H](NC(=O)CNC(=O)[C@H](CC(=O)O)NC(=O)[C@H](CO)NC(=O)[C@@H](N)Cc1cnc[nH]1)C(=O)N[C@@H](Cc1ccccc1)C(=O)N[C@H](C(=O)N[C@@H](CC(=O)O)C(=O)N[C@@H](CO)C(=O)N[C@@H](Cc1ccc(O)cc1)C(=O)N[C@@H](CO)C(=O)N[C@@H](CCCNC(=N)N)C(=O)N[C@@H](Cc1ccc(O)cc1)C(=O)N[C@@H](CCCNC(=N)N)C(=O)N[C@@H](CCCCN)C(=O)N[C@@H](CCC(N)=O)C(=O)N[C@@H](CCSC)C(=O)N[C@@H](C)C(=O)N[C@H](C(=O)N[C@@H](CCCCN)C(=O)N[C@@H](CCCCN)C(=O)N[C@@H](Cc1ccc(O)cc1)C(=O)N[C@@H](CC(C)C)C(=O)N[C@@H](C)C(=O)N[C@@H](C)C(=O)N[C@H](C(=O)N[C@@H](CC(C)C)C(=O)NCC(=O)N[C@@H](CCCCN)C(=O)N[C@@H](CCCNC(=N)N)C(=O)N[C@@H](Cc1ccc(O)cc1)C(=O)N[C@@H](CCCCN)C(=O)N[C@@H](CCC(N)=O)C(=O)N[C@@H](CCCNC(=N)N)C(=O)N[C@H](C(=O)N[C@@H](CCCCN)C(=O)N[C@@H](CC(N)=O)C(=O)N[C@@H](CCCCN)C(N)=O)C(C)C)C(C)C)C(C)C)[C@@H](C)O [PACAP38, Pituitary adenylate cyclase-activating polypeptide 38]
Kd [1]: 97.22 ± 0.01 nM

PACAP6-27: PACAP fragment examined by DSC in earlier studies (FTDSYSRYRKQMAVKKYLAAVL; ends and bridges not checked; UniProt P18509 137-158, looked up, fragment)
effect on thermal properties of actin (in words) [2]: altered the thermal stability of actin, albeit to a lesser degree
denaturation temperature of Ca2+-F-actin compared with control (in words) [3]: did not show significant changes

Pituitary adenylate cyclase-activating polypeptide [PACAP]
effect on morphological signs of nerve injury and hyperalgesia (in words) [4]: reduced morphological signs of nerve injury (axon–myelin separation, elevated mitochondrial number in myelinated axons, unmyelinated fiber atrophy, and basement membrane thickening of endoneurial vessels) while also attenuating pressure and touch hyperalgesia
effect on actomyosin stress fibers (in words) [5]: promotes actomyosin stress fiber depolymerization
effect on caspase-3 activity (in words) [6]: inhibits caspase-3 activity
effect on Tau phosphorylation (in words) [7]: enhances Tau phosphorylation and prevents its dephosphorylation
stimulation of adenylate cyclase activity relative to VIP [8]: 1000 times
effect on DPYL2 protein levels (in words) [9]: increases dihydropyrimidinase like 2 (DPYL2) protein levels in ischemic brain tissue
effect on axonal swellings and amyloid plaque accumulation (in words) [10]: reduces axonal swellings and amyloid plaque accumulation
effect on axon growth / neurite growth (in words) [11]: enhances axon length and cell body size but does not affect dendrite length

vasoactive intestinal peptide [VIP]
binding to PAC1 receptor (in words) [12]: low affinity
